Data published in PMC13703928, “Substrate‐Dependent Crosslinking by the Cytochrome P450 From Aminopyruvatide Biosynthesis” (Angewandte Chemie (International Ed. in English), 2026).
“And” between values parts separate entries of the source, which are not always exact repeats. Equal values may be shown once. “Also recorded” adds a separate entry of the source.

Legend:
papain = biological target: T1, papain (Carica papaya, UniProt P00784); assay: biochemical; conditions: 200 pM enzyme, 10 µM Z-FR-AFC; for IC50: 50 mM sodium phosphate pH 7, 1 mM EDTA, 2 mM DTT, 30 °C, 15 min preincubation at room temperature, fluorescence, meaning of ± and n not given, read-out: IC50, inhibition of papain; for Inhibition of papain at 25 µM (in words): pH 7, 30 °C
T1 construct: purchased Sigma P4762-25MG
T1 sequence (P00784 134-345): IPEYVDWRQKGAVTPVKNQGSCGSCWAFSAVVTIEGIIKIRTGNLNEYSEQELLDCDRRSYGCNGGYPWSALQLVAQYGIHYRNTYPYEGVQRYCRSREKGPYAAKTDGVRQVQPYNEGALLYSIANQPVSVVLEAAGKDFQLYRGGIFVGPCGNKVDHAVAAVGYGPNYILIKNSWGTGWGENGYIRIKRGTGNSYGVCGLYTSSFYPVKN

cathepsin B = biological target: T2, cathepsin B (Homo sapiens, UniProt P07858); assay: biochemical; conditions: 192.4 pM enzyme, 20 µM Z-RR-4MBNA; for Inhibition of cathepsin B at 25 µM (in words): pH 6.0, 30 °C
T2 construct: purchased Athens research and technology 16-12-030102

cathepsin L = biological target: T3, cathepsin L (Homo sapiens, UniProt P07711); assay: biochemical; conditions: 200 pM enzyme, 10 µM Z-FR-AFC; for Inhibition of cathepsin L at 25 µM (in words): pH 5.5, 30 °C
T3 construct: purchased Athens research and technology 16-12-030112
T3 sequence (P07711 114-333): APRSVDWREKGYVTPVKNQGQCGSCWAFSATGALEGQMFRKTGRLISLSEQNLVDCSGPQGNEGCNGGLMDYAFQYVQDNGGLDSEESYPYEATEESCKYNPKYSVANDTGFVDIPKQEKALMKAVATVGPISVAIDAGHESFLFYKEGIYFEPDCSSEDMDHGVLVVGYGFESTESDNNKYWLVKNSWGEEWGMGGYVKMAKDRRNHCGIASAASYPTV

[1] = biological target: T4, angiotensin I‐converting enzyme (ACE) (Oryctolagus cuniculus, UniProt P12822); assay type: biochemical; conditions: 0.4 mU/mL enzyme, 10 µM Abz-FRK(Dnp)-P-OH, pH 7.5, 37 °C
T4 construct: purchased Sigma A6778
T4 sequence (P12822 34-1310): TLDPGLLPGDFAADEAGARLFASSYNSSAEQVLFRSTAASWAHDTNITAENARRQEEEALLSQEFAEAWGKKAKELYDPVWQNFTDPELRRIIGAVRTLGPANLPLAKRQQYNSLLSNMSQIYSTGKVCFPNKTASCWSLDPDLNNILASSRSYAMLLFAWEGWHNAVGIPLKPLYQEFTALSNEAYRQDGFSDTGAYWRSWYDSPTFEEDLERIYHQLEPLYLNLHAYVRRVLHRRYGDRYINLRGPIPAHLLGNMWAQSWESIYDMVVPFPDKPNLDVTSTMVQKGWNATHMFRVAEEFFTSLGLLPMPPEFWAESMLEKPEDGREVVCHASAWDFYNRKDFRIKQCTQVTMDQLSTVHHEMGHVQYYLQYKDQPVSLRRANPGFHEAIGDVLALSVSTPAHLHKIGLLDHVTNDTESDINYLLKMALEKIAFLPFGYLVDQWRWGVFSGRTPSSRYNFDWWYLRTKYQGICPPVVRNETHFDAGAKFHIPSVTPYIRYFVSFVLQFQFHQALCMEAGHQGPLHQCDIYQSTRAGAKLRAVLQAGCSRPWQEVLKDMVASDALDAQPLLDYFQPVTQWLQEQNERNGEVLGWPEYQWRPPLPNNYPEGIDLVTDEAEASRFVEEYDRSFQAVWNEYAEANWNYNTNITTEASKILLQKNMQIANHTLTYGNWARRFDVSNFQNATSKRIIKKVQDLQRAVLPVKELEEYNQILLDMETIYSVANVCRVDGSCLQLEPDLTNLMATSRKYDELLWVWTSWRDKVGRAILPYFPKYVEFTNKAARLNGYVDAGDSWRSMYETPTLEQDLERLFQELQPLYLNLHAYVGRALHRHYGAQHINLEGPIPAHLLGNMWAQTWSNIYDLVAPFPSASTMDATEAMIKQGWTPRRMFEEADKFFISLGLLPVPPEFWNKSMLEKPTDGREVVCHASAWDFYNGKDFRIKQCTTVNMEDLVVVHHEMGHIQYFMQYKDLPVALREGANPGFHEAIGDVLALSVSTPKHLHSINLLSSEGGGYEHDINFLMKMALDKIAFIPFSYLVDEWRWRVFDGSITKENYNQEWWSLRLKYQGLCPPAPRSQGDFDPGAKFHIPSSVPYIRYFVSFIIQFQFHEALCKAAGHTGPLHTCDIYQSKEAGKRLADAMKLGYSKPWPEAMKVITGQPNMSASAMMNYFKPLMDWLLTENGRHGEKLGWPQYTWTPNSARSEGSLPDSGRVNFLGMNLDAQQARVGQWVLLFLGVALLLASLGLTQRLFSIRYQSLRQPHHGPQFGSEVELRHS

trypsin = assay type: biochemical; conditions: 500 pM enzyme, 10 µM Boc-QAR-AMC, Tris HCl pH 8, 30 °C
chymotrypsin = assay type: biochemical; conditions: 1 nM enzyme, 10 µM Suc-AAPF-AMC, Tris HCl pH 8, 30 °C
[2] = system: main protease from SARS CoV‐2 (M^pro); assay type: biochemical
[3] = system: proteases (trypsin, chymotrypsin, papain, cathepsin B, cathepsin L, ACE, M^pro); assay type: biochemical
ApyO [4] = assay type: biochemical, Burkholderia thailandensis E264; conditions: pH 7.5
ApyO [5] = assay type: biochemical, Burkholderia thailandensis E264; conditions: pH 7.5; remark: listed apart in the source

## NCC(=O)N[C@H]1Cc2ccc(O)c(c2)Oc2ccc(cc2)C[C@@H](C(=O)N[C@@H](CC(=O)O)C(=O)O)NC(=O)[C@H](Cc2ccc(O)cc2)NC1=O (single isomer, unassigned) [L7Y isomer-2]
papain
  IC50: 11700 nM

## GYWYD (sidechain bridge or staple) [L7W isomer-2]
Cathepsin B
  Inhibition of cathepsin B at 25 µM (in words): No inhibition was observed
Cathepsin L
  Inhibition of cathepsin L at 25 µM (in words): No inhibition was observed
papain
  Inhibition of papain at 25 µM (in words): No inhibition was observed
[1]
  Inhibition of ACE at 25 µM (in words): weak inhibition
[1]; IC50 not determined
  Inhibition of ACE at 25 µM: ~40%
trypsin
  Inhibition of trypsin at 25 µM (in words): No inhibition was observed
chymotrypsin
  Inhibition of chymotrypsin at 25 µM (in words): No inhibition was observed
[2]
  Inhibition of SARS CoV-2 Mpro at 25 µM (in words): No inhibition was observed

## GYYYD (sidechain bridge or staple) [L7Y isomer-1]
Cathepsin B
  Inhibition of cathepsin B at 25 µM (in words): No inhibition was observed
Cathepsin L
  Inhibition of cathepsin L at 25 µM (in words): No inhibition was observed
papain
  Inhibition of papain at 25 µM (in words): No inhibition was observed
trypsin
  Inhibition of trypsin at 25 µM (in words): No inhibition was observed
chymotrypsin
  Inhibition of chymotrypsin at 25 µM (in words): No inhibition was observed
[2]
  Inhibition of SARS CoV-2 Mpro at 25 µM (in words): No inhibition was observed

## CC(C)C[C@@H]1NC(=O)[C@@H](NC(=O)CN)Cc2ccc(O)c(c2)-c2cc(ccc2O)C[C@@H](C(=O)N[C@@H](C)C(=O)C(=O)O)NC1=O [desmethylaminopyruvatide A]
Cathepsin B; 100 mM sodium phosphate pH 6.0, 1.33 mM EDTA, 2 mM DTT, 30 °C, 15 min preincubation at room temperature, fluorescence, readings every 60 s for 1 h, meaning of ± and n not given, read-out: IC50, inhibition of cathepsin B
  IC50: 0.5 nM
Cathepsin L; 50 mM sodium acetate pH 5.5, 2.5 mM EDTA, 2.5 mM DTT, 30 °C, 15 min preincubation at room temperature, fluorescence, meaning of ± and n not given, read-out: IC50, inhibition of cathepsin L
  IC50: 0.6 nM
papain
  IC50: 0.3 nM
trypsin; test concentration not given
  Inhibition of trypsin (in words): No inhibition
chymotrypsin; test concentration not given
  Inhibition of chymotrypsin (in words): No inhibition
[2]
  Inhibition of SARS CoV-2 Mpro (in words): No inhibition
[3]; Cys proteases / select proteases
  Protease inhibition, potency in words: nanomolar activity against Cys‐proteases; also recorded: subnanomolar inhibitory activity against clinically relevant Cys proteases
[3]; cathepsin L, cathepsin B, papain versus trypsin, chymotrypsin, Mpro
  Specificity (in words): specificity towards the papain family of Cys proteases

## fMGEGYLYD
ApyO [4]
  Modification by ApyO (in words): did not result in product formation

## N‐terminally acetylated‐GRMGEGYLYD [Ac-ApyAct]
ApyO [5]
  Km: 80 ± 7 µM
  kcat: 1.63 and 1.63 ± 0.04

## GWLYD (sidechain bridge or staple) [Y6W]
Cathepsin B
  Inhibition of cathepsin B at 25 µM (in words): No inhibition was observed
Cathepsin L
  Inhibition of cathepsin L at 25 µM (in words): No inhibition was observed
papain
  Inhibition of papain at 25 µM (in words): No inhibition was observed
trypsin
  Inhibition of trypsin at 25 µM (in words): No inhibition was observed
chymotrypsin
  Inhibition of chymotrypsin at 25 µM (in words): No inhibition was observed
[2]
  Inhibition of SARS CoV-2 Mpro at 25 µM (in words): No inhibition was observed

## fMRMGEGYLYD [ApyAct]
ApyO [4]
  Conversion of substrate by ApyO: ~70%
